Data published in the supplement of paper PMC12137928.
Where a name gives a salt, the structure may show the parent alone.

Columns and labels:
HCT116 [1] = details: 72 h
Outline: (§1)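 IC50 and maximal efficacy were derived from four-parameter Hill curve fits. The underlying CellTiter-Glo luminescence was scaled so that vehicle equals 0% and positive control equals -100%, and was then pattern-corrected. HCT116 cells had been seeded in 1536-well plates at 250 per well.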

HCT116 [2] = test: efficacy (maximum % inhibition of viability vs DMSO); higher = more cytotoxic; details: 72 h
Outline: as §1

Compound | IC50 cell viability (HCT116 [1]; ICRF193 0 nM) | IC50 cell viability (HCT116 [1]; ICRF193 200 nM) | efficacy (HCT116 [2]; ICRF193 0 nM) | efficacy (HCT116 [2]; ICRF193 200 nM)
Cc1cncc(CN2CCC(=C3c4ccc(Cl)cc4CCc4cccnc43)CC2)c1 [Rupatadine (Fumarate)] | 18.3 µM | 20.6 µM | 56.6% | 88.3%
N#CC[C@H](C1CCCC1)n1cc(-c2ncnc3[nH]ccc23)cn1 [Ruxolitinib] | 29.1 µM | 29.1 µM | 85.9% | 88.8%
CC[C@@H](C(=O)[C@@H](C)[C@@H](O)[C@H](C)[C@@H]1O[C@@H]([C@@H](CC)C(=O)O)CC[C@@H]1C)[C@H]1O[C@]2(C=C[C@@H](O)[C@]3(CC[C@@](C)([C@H]4CC[C@](O)(CC)[C@H](C)O4)O3)O2)[C@H](C)C[C@@H]1C [SALINOMYCIN, SODIUM] | 2.31 µM | 1.3 µM | 104% | 100%
CO[C@H]1C[C@H](O[C@@H]2/C(C)=C/C[C@@H]3C[C@@H](C[C@]4(CC[C@H](C)[C@@H](C5CCCCC5)O4)O3)OC(=O)[C@@H]3C=C(C)/C(=N/O)[C@H]4OC/C(=C\C=C\[C@@H]2C)[C@]43O)O[C@@H](C)[C@@H]1O [SELAMECTIN] | 29.1 µM | 20.6 µM | 99.6% | 109%
OCc1cc(C(O)CNCCCCCCOCCCCc2ccccc2)ccc1O (configuration not stated) [Salmeterol xinafoate] | 23.1 µM | 23.1 µM | 108% | 110%
C[n+]1cc2c3c(ccc2c2ccc4cc5c(cc4c21)OCO5)OCO3 [Sanguinarine] | 2.83 µM | 2.53 µM | 98.2% | 91.6%
CC(C)(C)NC(=O)[C@@H]1C[C@@H]2CCCC[C@@H]2CN1C[C@@H](O)[C@H](Cc1ccccc1)NC(=O)[C@H](CC(N)=O)NC(=O)c1ccc2ccccc2n1 [Saquinavir] | 29.1 µM | 20.6 µM | 84.1% | 108%
O=C1NCCN1CCN1CCC(c2cn(-c3ccc(F)cc3)c3ccc(Cl)cc23)CC1 [Sertindole] | 16.4 µM | 23.1 µM | 105% | 117%
CN[C@H]1CC[C@@H](c2ccc(Cl)c(Cl)c2)c2ccccc21 [Sertraline hydrochloride] | 18.3 µM | 18.3 µM | 95.4% | 97.5%
CN1CCC2=C(C1)c1ccccc1Cc1ccccc12 [Setiptiline] | 20.6 µM | > 45.8 µM | 44.1% | 
CO[C@H]1C[C@@H]2CC[C@@H](C)[C@@](O)(O2)C(=O)C(=O)N2CCCC[C@H]2C(=O)O[C@H]([C@H](C)C[C@@H]2CC[C@@H](O)[C@H](OC)C2)CC(=O)[C@H](C)/C=C(\C)[C@@H](O)[C@@H](OC)C(=O)[C@H](C)C[C@H](C)/C=C/C=C/C=C/1C [Sirolimus] | 20.6 µM | 29.1 µM | 91.7% | 88.6%
CC(C)=CCOc1ccc(/C=C/C(=O)c2ccc(OCC=C(C)C)cc2OCC(=O)O)cc1 [Sofalcone] | 29.1 µM | > 45.8 µM | 108% | 
Cc1c(C(=O)Nc2ccc(N3C[C@@H](C)O[C@@H](C)C3)nc2)cccc1-c1ccc(OC(F)(F)F)cc1 [Sonidegib] | 10.3 µM | 13 µM | 42.7% | 60.5%
CNC(=O)c1cc(Oc2ccc(NC(=O)Nc3ccc(Cl)c(C(F)(F)F)c3)cc2)ccn1 [Sorafenib] | 20.6 µM | 29.1 µM | 113% | 52.1%
O=C1CSC2(CCN(CCCN3c4ccccc4Sc4ccc(Cl)cc43)CC2)N1 [Spiclomazine hydrochloride] | 20.6 µM | 23.1 µM | 81.3% | 82.5%
CC(=O)S[C@@H]1CC2=CC(=O)CC[C@]2(C)[C@H]2CC[C@@]3(C)[C@@H](CC[C@@]34CCC(=O)O4)[C@H]12 [Spironolactone] | 16.4 µM | 20.6 µM | 50.9% | 73.6%

Further lines, with some results ahead:

IC50 cell viability (HCT116 [1]; ICRF193 0 nM) | IC50 cell viability (HCT116 [1]; ICRF193 200 nM) | Compound | efficacy (HCT116 [2]; ICRF193 0 nM) | efficacy (HCT116 [2]; ICRF193 200 nM)
> 45.8 µM | 6.51 µM | OC[C@H]1O[C@H](O[C@]2(CCl)O[C@H](CCl)[C@@H](O)[C@@H]2O)[C@H](O)[C@@H](O)[C@H]1Cl [Sucralose] |  | 44.6%
29.1 µM | 18.3 µM | Clc1ccc(CSC(Cn2ccnc2)c2ccc(Cl)cc2Cl)cc1 (configuration not stated) [Sulconazole nitrate] | 89.6% | 76.4%
18.3 µM | 16.4 µM | CCN(CC)CCNC(=O)c1c(C)[nH]c(/C=C2\C(=O)Nc3ccc(F)cc32)c1C [Sunitinib malate] | 108% | 111%
> 45.8 µM | 25.9 µM | CCCCC1(COC(=O)CCC(=O)O)C(=O)N(c2ccccc2)N(c2ccccc2)C1=O [Suxibuzone] |  | 58.2%
29.1 µM | 16.4 µM | CCOC(=O)Oc1c(OC)cc(C(=O)O[C@@H]2C[C@@H]3CN4CCc5c([nH]c6cc(OC)ccc56)[C@H]4C[C@@H]3[C@H](C(=O)OC)[C@H]2OC)cc1OC [Syrosingopine] | 112% | 101%
25.9 µM | 29.1 µM | CCO/N=C(\C(=O)N[C@@H]1C(=O)N2C(C(=O)[O-])=C(Sc3nc(-c4cc[n+](C)cc4)cs3)CS[C@H]12)c1nsc(NP(=O)(O)O)n1 [TAK-599] | 57.6% | 76.4%
20.6 µM | 20.6 µM | CN1CCN(CC/C=C2/c3ccccc3Sc3ccc(S(=O)(=O)N(C)C)cc32)CC1 [THIOTHIXENE] | 112% | 126%
> 45.8 µM | 20.6 µM | Cc1cc(-n2c(=O)[nH]c(=O)n(C)c2=O)ccc1Oc1ccc(SC(F)(F)F)cc1 [TOLTRAZURIL] |  | 41.6%
23.1 µM | 20.6 µM | C=C1/C(=C\C=C2/CCC[C@]3(C)[C@@H]([C@H](C)CC[C@@H](O)C(C)C)CC[C@@H]23)C[C@@H](O)C[C@@H]1O [Tacalcitol] | 49.2% | 53.2%
20.6 µM | > 45.8 µM | CC1(C)CCC(C)(C)c2cc(NC(=O)c3ccc(C(=O)O)cc3)ccc21 [Tamibarotene] | 52.7% | 
23.1 µM | 18.3 µM | CC/C(=C(\c1ccccc1)c1ccc(OCCN(C)C)cc1)c1ccccc1 [Tamoxifen] | 101% | 93%
18.3 µM | 18.3 µM | O=C(OC[C@H]1O[C@@H](OC(=O)c2cc(O)c(O)c(OC(=O)c3cc(O)c(O)c(O)c3)c2)[C@H](OC(=O)c2cc(O)c(O)c(OC(=O)c3cc(O)c(O)c(O)c3)c2)[C@@H](OC(=O)c2cc(O)c(O)c(OC(=O)c3cc(O)c(O)c(O)c3)c2)[C@@H]1OC(=O)c1cc(O)c(O)c(OC(=O)c2cc(O)c(O)c(O)c2)c1)c1cc(O)c(O)c(OC(=O)c2cc(O)c(O)c(O)c2)c1 [Tannic acid] | 108% | 102%
20.6 µM | 29.1 µM | CCC[C@H](NC(=O)[C@@H]1[C@H]2CCC[C@H]2CN1C(=O)[C@@H](NC(=O)[C@@H](NC(=O)c1cnccn1)C1CCCCC1)C(C)(C)C)C(=O)C(=O)NC1CC1 [Telaprevir (VX-950)] | 80.7% | 74.5%
> 45.8 µM | 25.9 µM | Oc1cccc(-c2c3nc(c(-c4cccc(O)c4)c4ccc([nH]4)c(-c4cccc(O)c4)c4nc(c(-c5cccc(O)c5)c5ccc2[nH]5)CC4)C=C3)c1 [Temoporfin] |  | 46%
14.2 µM | 15.9 µM | CO[C@H]1C[C@@H]2CC[C@@H](C)[C@@](O)(O2)C(=O)C(=O)N2CCCC[C@H]2C(=O)O[C@H]([C@H](C)C[C@@H]2CC[C@@H](OC(=O)C(C)(CO)CO)[C@H](OC)C2)CC(=O)[C@H](C)/C=C(\C)[C@@H](O)[C@@H](OC)C(=O)[C@H](C)C[C@H](C)/C=C/C=C/C=C/1C [Temsirolimus] | 74.5% | 79%
2.31 µM | 1.83 µM | COc1cc([C@@H]2c3cc4c(cc3[C@@H](O[C@@H]3O[C@@H]5CO[C@@H](c6cccs6)O[C@H]5[C@H](O)[C@H]3O)[C@H]3COC(=O)[C@H]23)OCO4)cc(OC)c1O [Teniposide] | 92% | 103%
16.4 µM | 16.4 µM | COc1ccc(-n2nc(CCC(=O)N(C)O)cc2-c2ccc(Cl)cc2)cc1 [Tepoxalin] | 93.4% | 88.3%
13 µM | 11.6 µM | C/C(O)=C(\C#N)C(=O)Nc1ccc(C(F)(F)F)cc1 [Teriflunomide] | 51.8% | 46.2%
> 45.8 µM | 3.66 µM | CN(C)C(=S)SC(=S)N(C)C [Tetramethylthiuram monosulfide] |  | 40.7%
